Assays:
TG2 [1] = biological target: T1, TG2 (Homo sapiens, UniProt P21980); test: Extracellular crosslinking of 5BP to the Caco-2 cell surface by TG2; format: cell-based; conditions: 5BP 500 µM, TG2 100 nM, 1 h; dose-dependent; fluorometry and confocal microscopy
T1 construct: purchased Zedira T022
T1 sequence (P21980 1-687): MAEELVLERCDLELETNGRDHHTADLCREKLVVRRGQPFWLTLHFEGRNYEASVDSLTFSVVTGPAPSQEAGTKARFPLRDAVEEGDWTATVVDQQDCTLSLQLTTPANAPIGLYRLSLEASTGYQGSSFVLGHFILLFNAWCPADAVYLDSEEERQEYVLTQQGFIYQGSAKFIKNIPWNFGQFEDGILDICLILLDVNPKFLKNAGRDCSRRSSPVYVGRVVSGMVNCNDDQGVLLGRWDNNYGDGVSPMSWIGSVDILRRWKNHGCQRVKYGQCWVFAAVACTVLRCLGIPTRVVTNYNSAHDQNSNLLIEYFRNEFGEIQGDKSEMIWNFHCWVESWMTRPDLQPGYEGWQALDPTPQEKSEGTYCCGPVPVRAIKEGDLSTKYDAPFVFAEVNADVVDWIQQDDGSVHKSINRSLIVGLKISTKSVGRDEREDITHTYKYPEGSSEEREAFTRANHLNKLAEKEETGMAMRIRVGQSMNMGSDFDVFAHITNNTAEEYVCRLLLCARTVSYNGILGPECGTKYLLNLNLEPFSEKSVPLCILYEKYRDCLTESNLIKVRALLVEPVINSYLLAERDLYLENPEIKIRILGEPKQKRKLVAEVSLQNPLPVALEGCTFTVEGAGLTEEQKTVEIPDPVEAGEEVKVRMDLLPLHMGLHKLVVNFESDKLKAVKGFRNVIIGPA
Procedure: Confluent Caco‐2 cell monolayers were incubated with the transglutaminase substrate EZ‐link pentylamine‐biotin (5‐biotinamidopentylamine [5BP], 500 µM, 21345, Thermo Fisher Scientific) with or without mTG or TG2 (100 nM) in Tris buffer for 1 h. Corresponding transglutaminase inhibitors ERW1041 and mTG‐blocker were added to the solution at the indicated concentration. After fixation with 4% paraformaldehyde and blocking with 5% BSA, cells were incubated with streptavidin‐Alexa Fluor488 (S11223, 4 µg/mL, Thermo Fisher Scientific). Fluorometric quantitation was conducted using a FLUOstar Optima microplate reader (BMG Labtech, Ortenberg, Germany). For immunofluorescence microscopy, nuclei were stained with Hoechst dye (1:1000 in PBS, 44442, Thermo Fisher Scientific) for 10 min. Microscopy was done using a confocal laser scanning microscope (TE2000‐E, Nikon) and 20x Plan Apo […] objective. Image processing and quantitation were performed using ImageJ [32].

Caco‐2 cells [2] = conditions: inhibitor 100 µM, TG2 100 nM, biotinylated P56-88 and P31-49; fluorometry
TG2 [3] = biological target: T1, TG2; test: Immunoblot of gliadin-transglutaminase complexes; format: biochemical; conditions: TG2 1 µM, ERW1041 100 µM, 30 min, 37°C, n = 3
Procedure: TG2 or mTG (1 µM) was incubated with gliadin peptides (Table 2) with or without ERW1041 as TG2 blocker or the mTG‐blocker (100 µM) in Tris buffer. Biotinylated gliadin peptides or PTG was added to the solution at the indicated concentrations, and incubation was performed for 30 min at 37°C. The reaction was stopped by placing the samples on ice. Detailed description of the conditions for electrophoresis and blotting have been published elsewhere. After blocking the membrane for 1 h with 5% nonfat dry milk in phosphate buffered saline (PBS) + 2.5% tween, incubation with the primary antibody was performed at 4°C overnight (Table 3). The next day, incubation with the corresponding HRP‐conjugated secondary antibody was done. The crosslinking of biotinylated gliadin peptides was detected by streptavidin‐HRP alone. Visualization was done with the Super‐Signal West Femto kit (34096, Thermo Fisher Scientific, Langenselbold, Germany) for 5 min. Image processing and quantitation were performed using a ChemiDoc XRS+ imager and Image Lab software (BioRad Laboratories, Feldkirchen, Germany).

TG2 [4] = biological target: T1, TG2; test: In vitro transamidation (crosslinking) of gliadin peptides, indirect ELISA, TG2; format: biochemical; conditions: inhibitor 100 µM, Fig. 1A
Procedure: TG2 (10 nM, T022, Zedira, Darmstadt, Germany) or mTG (10 nM, T001, Zedira) were immobilized on a 96‐well plate (Sarstedt, Nümbrecht, Germany) in 50 mM Tris, 1 mM ethylenediamine tetraacetic acid (EDTA), 5 mM calcium chloride (pH 7.5) buffer containing 10 mM dithiotreitol (DTT, Merck KGaA, Darmstadt, Germany). After blocking with 2% bovine serum albumin (BSA, Carl Roth GmbH, Karlsruhe, Germany), the transglutaminase inhibitors ERW1041 (5095220001, Sigma–Aldrich, Darmstadt, Germany) and mTG‐blocker (C102, Zedira, each 100 µM) were applied according to protocol. Immobilized transglutaminases were incubated with biotin‐conjugated gliadin peptides or pepsin/trypsin digested gliadin (PTG, Table 2). Detection of crosslinked biotinylated gliadin peptides and PTG was done using horseradish peroxidase (HRP)‐conjugated streptavidin (1:2500, 405210, Biolegend, San Diego, CA, USA) or a specific gliadin antibody (1:1000, clone XGY4, Zedira) and the corresponding secondary HRP‐conjugated antibody (1:1000; sc‐516102, Santa Cruz Biotechnology, Dallas, TX, USA). The HRP‐substrate tetramethylbenzidine (TMB, T0440, Sigma–Aldrich, Darmstadt, Germany) was added, and photometric quantitation at 655 nm was performed after 15 min using a Clariostar Plus microplate reader (BMG Labtech, Ortenberg, Germany).

Caco‐2 cells [5] = conditions: inhibitor 100 µM, TG2 100 nM; immunofluorescence microscopy
Caco‐2 cells [6] = test: Cell viability, PrestoBlue HS assay; format: cell-based, human; conditions: used concentrations, 24 hours in culture medium; PrestoBlue HS 2 hours; Figure S1
Procedure: The effect of transglutaminases on the viability of Caco‐2 cells was investigated using the resazurin‐based PrestoBlue HS assay (P50200, Thermo Fisher Scientific) as described elsewhere. Details are provided in the Supporting Information.
Cells were incubated with mTG or TG2 at the indicated concentrations for 24 hours in culture medium. Incubation with PrestoBlue HS, diluted 1:10 in medium was performed for 2 hours at 37°C. Fluorometric examination was conducted using a Clariostar Plus microplate reader.

Q: With O=C(NC[C@@H]1CC(Br)=NO1)[C@@H]1CCCN1C(=O)OCc1cnc2ccccc2c1 [ERW1041] as the molecule, how does the “Effect of inhibitor on TG2-mediated crosslinking of 5BP to the cell surface” value (TG2 [1]) read?
A: reduced crosslinking of 5BP

Q: What about the “Effect of inhibitor on TG2-mediated gliadin peptide uptake” value (Caco‐2 cells [2]) of the same molecule?
A: to the baseline level

Q: What about the “Effect of inhibitor on transamidation of gliadin peptides to TG2” value (TG2 [3]) of the same molecule?
A: significantly reduced transamidation of all gliadin peptides to TG2

Q: What about the “Effect of inhibitor on TG2-mediated crosslinking of PTG” value (TG2 [4]) of the same molecule?
A: significantly reduced crosslinking of PTG

Q: What about the “Effect of inhibitor on TG2-enhanced cellular uptake of P56-88” value (Caco‐2 cells [5]) of the same molecule?
A: reduced cellular peptide uptake to the baseline level

B1: TG2: transglutaminase 2 (T022, Zedira) (protein, UniProt P21980 2-687, looked up)
Protein-glutamine …: AEELVLERCDLELETNGRDHHTADLCREKLVVRRGQPFWLTLHFEGRNYEASVDSLTFSVVTGPAPSQEAGTKARFPLRDAVEEGDWTATVVDQQDCTLSLQLTTPANAPIGLYRLSLEASTGYQGSSFVLGHFILLFNAWCPADAVYLDSEEERQEYVLTQQGFIYQGSAKFIKNIPWNFGQFEDGILDICLILLDVNPKFLKNAGRDCSRRSSPVYVGRVVSGMVNCNDDQGVLLGRWDNNYGDGVSPMSWIGSVDILRRWKNHGCQRVKYGQCWVFAAVACTVLRCLGIPTRVVTNYNSAHDQNSNLLIEYFRNEFGEIQGDKSEMIWNFHCWVESWMTRPDLQPGYEGWQALDPTPQEKSEGTYCCGPVPVRAIKEGDLSTKYDAPFVFAEVNADVVDWIQQDDGSVHKSINRSLIVGLKISTKSVGRDEREDITHTYKYPEGSSEEREAFTRANHLNKLAEKEETGMAMRIRVGQSMNMGSDFDVFAHITNNTAEEYVCRLLLCARTVSYNGILGPECGTKYLLNLNLEPFSEKSVPLCILYEKYRDCLTESNLIKVRALLVEPVINSYLLAERDLYLENPEIKIRILGEPKQKRKLVAEVSLQNPLPVALEGCTFTVEGAGLTEEQKTVEIPDPVEAGEEVKVRMDLLPLHMGLHKLVVNFESDKLKAVKGFRNVIIGPA
Q: Which “Effect on cell viability” value (Caco‐2 cells [6]) does the source give for B1 here?
A: did not affect cell viability

From PMC12581733, “Microbial Transglutaminase Increases Uptake and Translocation of Gliadin Peptides in the Human Intestinal Epithelium” (Molecular Nutrition & Food Research, 2025)
